Experiment [1] deals with T1, Trypsin (Sus scrofa, UniProt P00761). As to the kind of experiment: (§1) Inhibition of pig pancreas trypsin type IX-S using Boc-Gln-Ala-Arg-MCA substrate by 7-amino-4-methylcoumarin release based spectrofluorometry.
Another experiment has as its target Trypsin (Sus scrofa) (UniProt P00761). The experiment is described as §1. To be noted: TDE = time-dependent effect.
Experiment [2] has as its target T1, Trypsin. As to the kind of experiment: Inhibition of pig pancreas trypsin type IX-S.

Structures are written as SMILES. Bounds are passed on as bounds.

T1 sequence (P00761 whole entry): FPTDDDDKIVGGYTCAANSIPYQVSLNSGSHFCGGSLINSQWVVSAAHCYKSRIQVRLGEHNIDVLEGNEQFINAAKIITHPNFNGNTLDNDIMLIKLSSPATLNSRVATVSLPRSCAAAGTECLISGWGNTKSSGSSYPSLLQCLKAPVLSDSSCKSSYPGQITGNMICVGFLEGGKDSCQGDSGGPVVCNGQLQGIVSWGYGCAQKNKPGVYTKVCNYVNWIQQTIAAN
Chain of Trypsin (Sus scrofa) (P00761 whole entry): as above

In turn, `CC[C@H](C)[C@H](NC(=O)C(O)CCc1ccc(O)cc1)C(=O)N[C@H](C=O)CCCNC(=N)N` (some centres not stated) showed an IC50 against Trypsin [1] of 350 nM. Besides, the inhibition entry at Trypsin (Sus scrofa) was “tde”. For `CC[C@H](C)[C@H](NC(=O)C(O)CCc1ccc(O)cc1)C(=O)N[C@H](CO)CCCNC(=N)N` (some centres not stated) the same measures were 55000 nM and “tde”. In the case of `C[C@H]1C[C@@H](C(=O)NC(C=O)CCCNC(=N)N)N(C(=O)[C@@H](CCc2ccc(O)cc2)NC(=O)[C@H](O)Cc2ccc(O)cc2)C1` (some centres not stated) [SPUMIGIN E], the IC50 against Trypsin [1] is < 100 nM.

Regarding `CC(=O)N[C@@H](CC(C)C)C(=O)N[C@@H](CC(C)C)C(=O)N[C@H](C=O)CCCNC(=N)N` [LEUPEPTIN], the figures for the IC50 on Trypsin [1] and at Trypsin [2] were 500 nM and > 200 nM, respectively.

Broadly, the IC50 is the midpoint of a concentration-inhibition curve. Low values mean inhibition by little substance, high ones a need for much substance.

The values are drawn from ChEMBL document CHEMBL3351829, “Nostosins, Trypsin Inhibitors Isolated from the Terrestrial Cyanobacterium Nostoc sp. Strain FSN” (J Nat Prod, 2014).
